# Assays:
# [1] = In vivo microSPECT imaging of brain uptake; set-up: species or system rat
# Description: (§1) Animal experiments were conducted under the UK Animals (Scientific Procedures) Act 1986. This work was approved by the ethical review committee at the University of Glasgow (PPL: 60/3436) prior to the start of study. Naïve male Sprague-Dawley rats (Harlan, UK), weighing 217 to 352 g were either conscious or anaesthetised (2.5–3% isoflurane via a tracheostomy and artificial ventilation in 70/30% N2O/O2) for the duration of the experiment. Anaesthetised rats had their respiration and temperature monitored throughout. [^125I]WYE-230949 was administered via a femoral vein cannula to anaesthetised rats or via the lateral tail vein to conscious rats. The injected dose for each rat was calculated by measuring the syringe in a dose calibrator before and after [^125I]WYE-230949 administration. The radioactive and radiochemical amounts administered to individual rats ranged from 12.6 to 24.5 MBq and 0.32 to 0.70 µg/kg respectively in all in vivo studies.
# MicroSPECT imaging was performed in order to image the uptake of [^125I]WYE-230949 in the brain over time. SPECT scanning was performed using a MollyQ 50 microSPECT scanner (Neurophysics Corp., Shirley, MA, U.S.A.). Rats were anaesthetised for the duration of scan (2–3% isoflurane in 70/30% N2O/O2) and physiological parameters were maintained as described previously. The scanning protocol was designed to ensure that a forebrain slice encompassing structures dense in H3 bindings sites including cortex, striatum, hippocampus and thalamus was captured; the first slice being 14.4 mm caudal to the eyes, approximately at the level of the caudate nucleus. Scanning was commenced 12 min prior to intravenous injection of [^125I]WYE-230949 via the tail vein. Ten sequential coronal slices (400 µm/slice) were collected over a total scanning distance of 4 mm with a scanning time of 12 min per repetition. […] The mean intensity of the ROI in each slice of the SPECT images was measured by plotting a z-axis profile. […] Finally these values were expressed as % of injected dose per ml of tissue and plotted against time.
# Ex vivo biodistribution = format: in vivo, rat; conditions: for brain uptake: i.v.
# Description: as §1
# Ex vivo biodistribution studies were performed in both conscious and anaesthetised rats in order to investigate the effect of anaesthesia on [^125I]WYE-230949 uptake. At 30 or 120 min following [^125I]WYE-230949 administration rats were killed by cervical dislocation. These time points were chosen based on the biological half life of [^125I]WYE-230949 determined from microSPECT imaging studies. Serial arterial blood sampling via a femoral artery cannula was performed in anaesthetised rats only. Blood was collected into heparin-coated tubes for analysis of plasma and into EDTA coated tubes for analysis of whole blood. At either 30 or 120 min following [^125I]WYE-230949 administration rats were killed by cervical dislocation and the brain, heart, lungs, kidneys and liver dissected. Samples were counted on a Gamma Scintillation Counter (Packard Cobra II D5010, UK) and counts per minute (cpm) converted to kBq using a standard curve. Radioactivity was corrected for decay of ^125I and expressed per sample weight and as a percentage of injected dose (%ID/g tissue).
# [2] = Ex vivo HPLC analysis of rat plasma and brain samples (% parent compound); format: in vivo
# Description: as §1
# After intravenous injection of [^125I]WYE-230949 blood samples were obtained by terminal cardiac puncture from anaesthetised rats or via the lateral tail vein from conscious rats at either 30 or 120 min. Rats were then immediately killed by cervical dislocation and the brain removed. Plasma was separated from whole blood by centrifugation and the protein precipitated by combining 400 µl of plasma with 400 µl of ice-cold acetonitrile. A sample (200 µl) of the supernatant was made up to 1 ml with distilled water and injected onto the HPLC column. The brain was homogenised in 2 ml saline, protein precipitated by addition of 2 ml of ice-cold acetonitrile. Samples were then centrifuged (1300 rpm; 200×g) and the supernatant added to 1 ml acetonitrile before being centrifuged again (1300 rpm; 200×g). The acetonitrile was evaporated under a stream of argon gas and the remaining 1 ml injected onto the HPLC column. Analysis of the brain and plasma metabolite samples was performed using the analytical HPLC methodology described. The % parent compound present was calculated.
# histamine H3 receptor = target: T1, histamine H3 receptor (Rattus norvegicus, UniProt Q9QYN8); assay: In vitro autoradiography on rat brain sections; format: binding; conditions: 5 nM radioligand, non-specific with 5 µM iodophenpropit
# T1 construct: Sections (20 µm) cut from a frozen rat brain were pre-incubated in Tris-HCl buffer; from tissue
# T1 sequence (Q9QYN8 whole entry): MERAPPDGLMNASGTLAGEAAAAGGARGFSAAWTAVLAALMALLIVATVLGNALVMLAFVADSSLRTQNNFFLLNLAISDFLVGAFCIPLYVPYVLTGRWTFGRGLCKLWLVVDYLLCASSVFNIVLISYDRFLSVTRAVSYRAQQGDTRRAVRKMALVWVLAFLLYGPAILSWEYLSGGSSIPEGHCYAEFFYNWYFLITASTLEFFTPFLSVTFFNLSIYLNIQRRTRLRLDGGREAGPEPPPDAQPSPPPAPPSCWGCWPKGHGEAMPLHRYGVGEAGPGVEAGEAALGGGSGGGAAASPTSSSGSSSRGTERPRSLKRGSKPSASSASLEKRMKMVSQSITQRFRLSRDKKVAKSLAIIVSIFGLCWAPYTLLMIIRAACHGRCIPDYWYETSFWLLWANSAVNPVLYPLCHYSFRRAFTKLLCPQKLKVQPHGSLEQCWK
# Description: Sections (20 µm) cut from a frozen rat brain were pre-incubated in Tris-HCl buffer (50 mM, pH 7.4; EDTA 5 mM) for 15 min then incubated in 5 nM [^125I]WYE-230949 for 90 min at room temperature. Non-specific binding was defined in adjacent sections in the presence of 5 µM iodophenpropit dihydrobromide. Sections were washed (2×30 min in Tris buffer) and briefly (15 s) rinsed in distilled water before drying and apposition to Kodak Biomax for 24 h. These autoradiograms were generated only for visual comparison with those obtained ex vivo.
smiles,measurement,setting,value
O=C(c1ccc(Cn2cnc3cccc([125I])c32)cc1)N1CC[C@H](N2CCCC2)C1 [[^125I]WYE-230949],maximum brain uptake (microSPECT),"[1]; first 12 min following i.v. injection, anaesthetised rats, n = 5",0.14±0.01 % ID/ml
same,"maximum brain uptake (SPECT), as restated in discussion","[1]; first 12 min post injection, rats",0.14 %ID/g
same,half-life in rat brain,[1]; microSPECT time activity curve,45.4 min
same,brain uptake,"Ex vivo biodistribution; 30 min, anaesthetised rats",0.11 %ID/g
same,brain uptake,"Ex vivo biodistribution; 30 min, conscious rats",0.06±0.01 %ID/g
same,brain uptake,"Ex vivo biodistribution; 120 min, anaesthetised rats",0.06±0.01 %ID/g
same,brain uptake,"Ex vivo biodistribution; 120 min, conscious rats",0.03±0.003 %ID/g
same,peak radioactivity in plasma,"Ex vivo biodistribution; anaesthetised rats, n = 6",4.04±1.14 %ID/g of tissue
same,peak radioactivity in whole blood,"Ex vivo biodistribution; anaesthetised rats, n = 6",3.14±0.26 %ID/g of tissue
same,time of peak radioactivity in plasma,"Ex vivo biodistribution; anaesthetised rats, n = 6",0.38 ± 0.02 min
same,time of peak radioactivity in whole blood,"Ex vivo biodistribution; anaesthetised rats, n = 6",0.50 ± 0.03 min
same,parent compound remaining in plasma,[2]; 30 minutes after injection,less than 38%
same,Percentage of parent compound detected,"[2]; Brain, 30 min, anaesthetised",27±4 (n = 3) %
same,Percentage of parent compound detected,"[2]; Brain, 30 min, conscious",46±2 (n = 4) %
same,Percentage of parent compound detected,"[2]; Brain, 120 min, anaesthetised",32±5 (n = 3) %
same,Percentage of parent compound detected,"[2]; Brain, 120 min, conscious",36±6 (n = 4) %
same,Percentage of parent compound detected,"[2]; Plasma, 30 min, anaesthetised",14±2 (n = 4) %
same,Percentage of parent compound detected,"[2]; Plasma, 30 min, conscious",38±9 (n = 6) %
same,Percentage of parent compound detected,"[2]; Plasma, 120 min, anaesthetised",3±3 (n = 4) %
same,Percentage of parent compound detected,"[2]; Plasma, 120 min, conscious",8±5 (n = 4) %
same,parent compound remaining in plasma,[2]; after 120 min,less than 8%
same,regional distribution of binding in rat brain,histamine H3 receptor,corresponded with known histamine H3 receptor distribution
